Data on twelve molecules can be found in patent US6225478A, “Iridoid derivatives and neovascularization inhibitors containing the same as active ingredient” (Tsumura & Co., priority 1999, dated 2001).

Holding throughout (type): cell-based
In test [1] the test system is human umbilical-vein endothelial cells (HUVEC). The test is described as follows: Cell Migration Assay (CMA) Test, HUVEC (% relative to control). To be noted: 24 hours, 60% or less = remarkable inhibition; for activity at 1 µg/mL / activity at 10 µg/mL: Homo sapiens, HUVEC, read-out: CMA (% relative to control). As for the experimental part: (§1) Furthermore, the sample liquids of compounds used in the CPA and CMA tests were prepared in the manner described below. Firstly, after weighing out each compound, a calculated amount of DMSO was added. After dissolving the compound in the DMSO, phosphate buffered physiological saline (PBS (-)) was added to bring the sample concentration to 1 mg/ml in PBS (-). The amount of DMSO used to dissolve the compounds was adjusted in advance to that the concentration of DMSO at that time was 5%. The resulting liquids were diluted 10-fold with 5% DMSO-PBS (-) solution to prepare sample solutions having a concentration of 0.1 mg/ml. In the TFA test, 320 μl of the prepared 1 mg/ml sample solutions were removed followed by addition of 680 μl of PBS (-) to prepare samples having a concentration of […]. Moreover, 100 μl of this solution was removed followed by addition of 900 μl of PBS (-) to dilute 10-fold and prepare samples having a concentration of 1 μg/ml. P [Cell Proliferation Assay (CPA) Test]
After disseminating the 7th subculture of HUVEC obtained from the first generation in the same manner as above at 4 ml/well (3.0×10^5 cells/well) in a collagen-coated 6-well plate (NUNC), the cells were cultured for 48 hours at 37° C. in the presence of 5% CO2. The cells reached nearly a completely confluent state as a result of this culturing.
A double-edged, disposable razor blade was divided into four sections, of which one of those sections was pinched between a pair of forceps. Using this piece of razor blade, the cell surface in the above confluent state was scraped off. Two areas of the cell surface were scraped off in each well.
After washing the surface of the wells from which the cells had been scraped off with medium, 4.0 ml of fresh M199 (2+) medium were added followed by addition of 40 μl or 4 μl of sample solution (1 mg/ml). The cells were cultured for 24 hours at 37° C. in the presence of 5% CO2. After discarding the culture liquid, the cells were fixed for 30 minutes with methanol. Next, after staining the cells for 4 hours with Giemsa stain, the plates were washed with tap water and air dried.
Measurement of cell migration was performed by microscopically counting the number of cells that had newly migrated within the range of a 1 mm×1 mm block. […] The total number of cells counted in blocks 1 through 5 were then totaled to determine the overall total number of cells. Four fields were counted for each well.
Evaluation was performed determining the cell migration (%) according to the following formula.
Cell migration rate=number of migrating cells to which sample was added×100/number of migrating of control (+)
Control (+) indicates the number of migrating cells in the control well containing M199 (2+).

For test [2] the test system is unchanged. The test is described as follows: Cell Proliferation Assay (CPA) Test, HUVEC, MTT. To be noted: M199 (2+) medium; for IC50: Homo sapiens, read-out: CPA (IC50 μg/ml). As for the experimental part: as §1
100 μl of the 7th subculture obtained from first generation human umbilical-vein endothelial cells (HUVEC) were disseminated in the wells (N=3) of a 96-well plate (Iwaki, Cat. #4860-010) at a cell concentration of 5×10^4 cells/ml. M-199 medium containing +20% FCS, 10 ng/ml of b-FGF and 10 ng/ml of EGF (abbreviated as "M199 (2+)") was used for the medium.
After culturing for 24 hours at 37° C. in the presence of 5% CO2 under the above conditions, 20 μl/well of MTT solution (solution containing 5 mg/ml of PBS (-)) were added to the control well followed by accurately culturing for 4 hours at 37° C. in the presence of 5% CO2. Following completion of culturing, 100 μl/well of a stop solution (0.001 N aqueous HCl solution containing 10% SDS) were added. On the other hand, 10 μl/well of sample solutions at concentrations of 1 mg/ml and 0.1 mg/ml were added to the other wells.
After culturing for 24 hours at 37° C. in the presence of 5% CO2, the medium was replaced and 100 μl/well of M199 (2+) were added. The samples were also replaced in each well at this time.
Moreover, after additionally culturing for 48 hours at 37° C. in the presence of 5% CO2, 20 μl/well of MTT solution were added to the wells containing sample and the control well followed by accurately culturing for 4 hours at 37° C. and adding 100 μl/well of stop solution.

Test [3] has the same test system. The test is described as follows: Tube Formation Assay (TFA) Test, HUVEC in collagen gel. To be noted: 20 hours, 40% or less judged remarkable; for inhibition at 1 µg/mL / inhibition at 10 µg/mL: Homo sapiens, HUVEC, read-out: TFA (inhibition rate, %). In outline: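 Inhibition rate (%) of tube formation is computed from tube lengths against control (+) and control (-), measured after 20 h at 37 °C in M-199 with 20% FCS, 30 ng/ml b-FGF and 0.1 μM PMA. Samples were applied to HUVEC on collagen and covered by a second collagen layer (double-layer gel).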

Converted amounts (≈) assume the structure as drawn. Read-outs that look alike come from different tables or passages of the source.

On to `CNC(=O)OCC12O[C@H]1C[C@@H]1C(C(=O)OC)=CO[C@@H](OC(=O)NC)C12` (stereo in doubt) [compound 48, (1S,4aS,6S,7R,7aR)-6,7-epoxy-1-(methylcarbamoyloxy)-7-(methylcarbamoyloxymethyl)-1,4a,5,6,7,7a-hexahydrocyclopenta [c] pyrane-4-carboxylic acid methylester], for which the activity at 1 µg/mL in test [1] (1 μg/ml) was 93.3%. The activity at 10 µg/mL in test [1] (10 μg/ml) amounted to 107%. The IC50 in test [2] is greater than 100 µg/mL. Further, the inhibition at 1 µg/mL in test [3] (20 h, 1 μg/ml) turned out to be 51.5%. For the same molecule, in test [3] (20 h, 10 μg/ml), the inhibition at 10 µg/mL was 54.1%.

Regarding `O=c1[nH]cc(F)c(=O)[nH]1` [5-FU, 5-fluorouracil, reference compound], the activity at 1 µg/mL in test [1] (1 μg/ml) amounted to 102%. The activity at 10 µg/mL in test [1] (10 μg/ml) turned out to be 92.9%. Moreover, the IC50 in test [2] is 3.5 µg/mL (≈ 26.9 µM). In addition, in test [3] (1 μg/ml), the inhibition at 1 µg/mL came out at 42.4%. In addition, the inhibition at 10 µg/mL in test [3] (10 μg/ml) stood at 52.3%.

On to `CNC(=O)OC[C@]12O[C@H]1C[C@@H]1C(C(=O)OC)=CO[C@@H](O)[C@@H]12` [Compound 60, (4aS,6S,7R,7aR)-6,7-epoxy-1-hydroxy-7-methylcarbamoyloxymethyl-1,4a,5,6,7a-pentahydro [c] pyrane-4-carboxylic acid methylester], for which, in test [1] (1 μg/ml), the activity at 1 µg/mL was determined as 87.1%. Also, in test [1] (10 μg/ml), the activity at 10 µg/mL came out at 96.3%. The IC50 in test [2] was greater than 100 µg/mL. In test [3] (20 h, 1 μg/ml), the inhibition at 1 µg/mL was 32.7%. In addition, in test [3] (20 h, 10 μg/ml), the inhibition at 10 µg/mL came to 41.5%.

With `COC(=O)C1=CO[C@H](OC(=O)NC(=O)c2ccccc2)C2[C@@H]1C[C@@H]1O[C@]21C` (stereo in doubt) [compound 42, (1R,4aS,6S,7R,7aR)-1-(benzoylcarbamoyloxy)-6,7-epoxy-1,4a,5,6,7,7a-hexahydro-7-methylcyclopenta [c] pyrane-4-carboxylic acid methylester], the activity at 1 µg/mL in test [1] (1 μg/ml) came out at 90.4%. In test [1] (10 μg/ml), the activity at 10 µg/mL is 70.6%. Also, the IC50 in test [2] is greater than 100 µg/mL. In addition, the inhibition at 1 µg/mL in test [3] (20 h, 1 μg/ml) worked out at 12.5%. In addition, the inhibition at 10 µg/mL in test [3] (20 h, 10 μg/ml) was 18.7%.

Consider `CNC(=O)OC[C@@H]1[C@@H](C)CC[C@@H]1C1(COC(=O)NC)CO1` (stereo partly drawn) [Compound 59, 2-[(1S,2R,3S)-2-(methylcarbamoyloxy)methyl-3-methylcyclopento-1-yl]-2,3-epoxy-propane-1-methylcarbamate], for which the “CMA (% relative to control)” value in test [1] (1 μg/ml) worked out at 99.3%; in test [1] (10 μg/ml), 92.5%. The “CPA (IC50 μg/ml)” value in test [2] was greater than 100.0 µg/mL. Besides, the entries for the “TFA (inhibition rate, %)” value in test [3] (1 μg/ml) and in test [3] (10 μg/ml) were 5.9% and -4.5%, respectively.

Consider Protamine [reference compound], for which the “CMA (% relative to control)” value came to 69.2% in test [1] (1 μg/ml) and 50.0% in test [1] (10 μg/ml). In test [2], the “CPA (IC50 μg/ml)” value was determined as 52.7 µg/mL. Besides, the entries for the “TFA (inhibition rate, %)” value in test [3] (1 μg/ml) and in test [3] (10 μg/ml) were 41.0% and 25.4%, respectively.

As to `COC(=O)C1=CO[C@@H](OC(=O)NCCCl)[C@@H]2[C@@H]1C[C@@H]1O[C@]21C` [compound 32, (1S,4aS,6S,7R,7aR)-1-[(2-chloroethyl)carbamoyloxy]-6,7-epoxy-1,4a,5,6,7,7a-hexahydro-7-methylcyclopenta [c] pyrane-4-carboxylic acid methylester], the activity at 1 µg/mL in test [1] (1 μg/ml) worked out at 93%. Besides, the activity at 10 µg/mL in test [1] (10 μg/ml) is 97%. The IC50 in test [2] is greater than 100 µg/mL. Also, the inhibition at 1 µg/mL in test [3] (1 μg/ml) was 68.8%. Moreover, the inhibition at 10 µg/mL in test [3] (10 μg/ml) came to 30%.

For the molecule `CNC(=O)O[C@@H]1OCC(C(=O)OC)[C@H]2C[C@@H]3O[C@]3(C)C12` (stereo in doubt) [Compound 55, (1S,4R,4aS,6S,7R,7aR)-6,7-epoxy-7-methyl-1-(methylcarbamoyloxy)-1,3,4,4a,5,6,7,7a-octahydrocyclopenta [c] pyrane-4-carboxylic acid methylester], the activity at 1 µg/mL in test [1] (1 μg/ml) stood at 97.8%. For the same molecule, in test [1] (10 μg/ml), the activity at 10 µg/mL stood at 91.8%. Also, in test [2], the IC50 was greater than 100 µg/mL. Also, the inhibition at 1 µg/mL in test [3] (20 h, 1 μg/ml) was 13.9%. In test [3] (20 h, 10 μg/ml), the inhibition at 10 µg/mL came to 3.8%.

Consider `CNC(=O)OC=C(C(=O)OC)[C@@H]1CC[C@]2(C)O[C@@]12CO` [compound 54, 2-[(1S,2R,3S)-2,3-epoxy-2-(hydroxymethyl)-3-methyl-2-cyclopentyl]-3-[(methylcarbamoyl)oxy] methylacrylate], for which the “CMA (% relative to control)” value in test [1] (1 μg/ml) amounted to 90.5%; in test [1] (10 μg/ml) it was 86.2%. The “CPA (IC50 μg/ml)” value in test [2] is greater than 100.0 µg/mL. For the same molecule, the “TFA (inhibition rate, %)” value is on record as -8.6% in test [3] (1 μg/ml) and -12.2% in test [3] (10 μg/ml).

For the molecule `COC(=O)C1=CO[C@@H](OC(=O)NC(=O)CCl)[C@@H]2[C@@H]1C[C@@H]1O[C@]21C` [compound 39, (1S,4aS,6S,7R,7aR)-1-(chloroacetylcarbamoyloxy)-6,7-epoxy-1,4a,5,6,7,7a-hexahydro-7-methylcyclopenta [c] pyrane-4-carboxylic acid methylester], in test [1] (1 μg/ml), the activity at 1 µg/mL was 110%. Also, the activity at 10 µg/mL in test [1] (10 μg/ml) worked out at 94.6%. Moreover, the IC50 in test [2] stood at 55 µg/mL (≈ 159 µM). Also, the inhibition at 1 µg/mL in test [3] (20 h, 1 μg/ml) came to 37.6%. The inhibition at 10 µg/mL in test [3] (20 h, 10 μg/ml) was 39.7%.

For `CNC(=O)O[C@@H]1OC=C(C(=O)O)[C@H]2C[C@@H]3O[C@]3(C)[C@H]12` [compound 1, (1S,4aS,6S,7R,7aR)-6,7-epoxy-1,4a,5,6,7,7a-hexahydro-7-methyl-1-(methylcarbamoyloxy) cyclopenta [c]-pyrane-4-carboxylic acid], the activity at 1 µg/mL in test [1] (1 μg/ml) was found to be 98.5%. For the same molecule, the activity at 10 µg/mL in test [1] (10 μg/ml) stood at 93.5%. Also, the IC50 in test [2] is greater than 100 µg/mL. Also, in test [3] (20 h, 1 μg/ml), the inhibition at 1 µg/mL came to 49.8%. The inhibition at 10 µg/mL in test [3] (20 h, 10 μg/ml) was 37.8%.

`CCCCCC[C@]12O[C@H]1C[C@@H]1C(C(=O)OC)=CO[C@@H](OC(=O)NC)[C@@H]12` [compound 44, (1S,4aS,6S,7R,7aR)-6. 7-epoxy-7-n-hexyl-1,4a,5,6,7,7a-hexahydro-1-(methylcarbamoyloxy) cyclopenta [c] pyrane-4-carboxylic acid methy:lester]: the activity at 1 µg/mL in test [1] (1 μg/ml) was 99.4%. In addition, in test [1] (10 μg/ml), the activity at 10 µg/mL amounted to 98.2%. Besides, in test [2], the IC50 was greater than 100 µg/mL. Besides, in test [3] (20 h, 1 μg/ml), the inhibition at 1 µg/mL turned out to be 69.7%. Also, the inhibition at 10 µg/mL in test [3] (20 h, 10 μg/ml) was determined as 71.4%.

In general, inhibition refers to the percentage by which the read-out fell short of the control.
